Data on three compounds can be found in patent publication US11446287B2, “Compounds and methods for EP300 or CBP modulation and indications therefor” (Opna Immuno-Oncology SA, priority 2019, dated 2022).

Structures are written as SMILES.

The target of the assay is T1, Recombinant human EP300 containing the bromodomain (EP300-BD (1040-1161)) (Homo sapiens, UniProt Q09472).
T1 construct: Recombinant human EP300 bromodomain (EP300-BD (1040-1161)); made in house; host or cells: E. coli BL21-CodonPlus (DE3), modified pET vector
T1 sequence (Q09472 1040-1161): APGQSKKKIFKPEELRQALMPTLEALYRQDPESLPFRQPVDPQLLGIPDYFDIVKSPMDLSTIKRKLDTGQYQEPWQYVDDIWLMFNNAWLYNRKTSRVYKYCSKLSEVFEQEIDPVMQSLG
Briefly: EP300 Alphascreen binding assay. Summed up:
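Displacement of a biotinylated acetyl-K56 histone H3 peptide from the N-His bromodomain construct (1040-1161) measured by AlphaScreen proximity, beads at 7.5 μg/ml final, read 60 min after addition. Protein, peptide and compound first incubated 1 h at room temperature, pH 7.5 HEPES buffer; IC50 by four-parameter logistic fit.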
(Alpha assays give light when donor and acceptor beads are brought close together.)
In the case of `Cc1noc(C)c1-c1cnc2c(c1)c(-c1ccc(C(=O)O)cc1OC(F)(F)F)cn2-c1ccc(C#N)cc1` [P-0313, 4-(1-(4-cyanophenyl)-5-(3,5-dimethylisoxazol-4-yl)-1H-pyrrolo[2,3-b]pyridin-3-yl)-3-(trifluoromethoxy)benzoic acid], the IC50 was in the range of 0.0001 to 1 µM.

As to `Cc1noc(C)c1-c1cnc2c(c1)c(-c1ccc(C(=O)O)cc1OC(F)(F)F)cn2-c1ccc(C(C)(C)O)cc1` [P-0314, 4-(5-(3,5-dimethylisoxazol-4-yl)-1-(4-(2-hydroxypropan-2-yl)phenyl)-1H-pyrrolo[2,3-b]pyridin-3-yl)-3-(trifluoromethoxy)benzoic acid], the half-maximal inhibitory concentration (IC50) lay within 0.0001 to 1 µM. In the case of `Cc1noc(C)c1-c1cnc2c(c1)c(-c1ccc(C(=O)O)cc1OC(F)(F)F)cn2-c1ccsc1` [P-0315, 4-(5-(3,5-dimethylisoxazol-4-yl)-1-(thiophen-3-yl)-1H-pyrrolo[2,3-b]pyridin-3-yl)-3-(trifluoromethoxy)benzoic acid], the half-maximal inhibitory concentration (IC50) was 0.0001 to 1 µM.

By IC50 is commonly meant the point on the concentration scale where inhibition reaches its midpoint.
